“Also recorded” adds a separate entry of the source. Read-outs that look alike come from different tables or passages of the source.
What was measured:
prostate cancer cells = details: cited from earlier work
pancreatic tumor cells = details: cited from earlier work
human Caki-2 RCC cells = experiment: Induction of glycogenosis in Caki-2 RCC cells by activators of the hypoxia pathway; type: cell-based
Procedure: To test this hypothesis it was first necessary to establish an in vitro model of glycogenosis in a relevant clear cell renal cell carcinoma (ccRCC) cell type (CAKI-2 cells). It was first necessary to induce levels of glycogenosis similar to those measured in human disease. We obtained human RCC biopsies (FIG. 4 B) and compared glycogen levels with neighboring grossly uninvolved tissue (GU). […] We treated human Caki-2 RCC cells with known activators of hypoxia pathway in 20 mM glucose for 24 h: 100 μM cobalt chloride, 100 μM desferrioxamine (DFO), and hypoxia (pO2=1%) (FIG. 4 A).
We therefore repeated the induction of glycogenosis with DFO after prior treatment with HIF-1α RNAi (FIG. 5).

HIF protein = experiment: Immunoblot of HIF protein levels in Caki-2 cells; type: cell-based, human; details: 100 μM, 20 mM glucose, 24 h
Procedure: To test this hypothesis it was first necessary to establish an in vitro model of glycogenosis in a relevant clear cell renal cell carcinoma (ccRCC) cell type (CAKI-2 cells). It was first necessary to induce levels of glycogenosis similar to those measured in human disease. We obtained human RCC biopsies (FIG. 4 B) and compared glycogen levels with neighboring grossly uninvolved tissue (GU). There was a […] induction of glycogen levels in human RCC (1±1 to 230±40 μg glucose/mg protein, p<0.01). We treated human Caki-2 RCC cells with known activators of hypoxia pathway in 20 mM glucose for 24 h: 100 μM cobalt chloride, 100 μM desferrioxamine (DFO), and hypoxia (pO2=1%) (FIG. 4 A).

CAKI-2 cells [1] = experiment: Cell death by propidium iodide inclusion (FACScan) under nutrient deprivation and azide; type: cell-based, human
Procedure: The invention was tested in an in vitro model. CAKI-2 cells were pre-incubated in the presence of 300 μM desferrioximine (DFO, solid line) in RPMI1640 and 10% fetal calf serum to induce the accumulation of glycogen. After 16 hours the media was changed to DMEM with 0 mM glucose and 0 mM pyruvate for 4 hours, to mimic the absence of nutrient as present in the interior of a tumor or resulting from treatment with anti-angiogenic inhibitors, increasing concentrations of sodium azide (0 to 100 mM) to mimic the absence of oxygen, and the presence or absence of 60 μM CP-316819 to specifically target glycogenolysis (CP, closed circles). Cells were then trypsinized, collected, treated with 0.1 mg propidium iodide in KRBH buffer (25 mM HEPES 7.4, 120 mM NaCl, 4.6 mM KCl, 1.9 mM CaCl2, 1 mM MgSO4, and 1.2 mM KH2PO4), and analyzed for cell death by measuring inclusion of propidium iodide on a FACScan instrument ([…]).

[2] = cited from earlier work
RCC [3] = details: clinical trials; cited from earlier work
CAKI-2 cells [4] = experiment: Glycogen mobilization in glucose-starved CAKI-2 cells; type: cell-based, human
Source text: Caki-2 cells loose glycogen when starved of glucose in the media and not when there was abundant glucose (p<0.05). As proposed in the invention glycogen reserves are responsive to the metabolic status of the carcinoma cell and are mobilized in response to metabolic stress.
We also tested whether glycogen mobilization could be inhibited pharmacologically (FIG. 6B). We therefore treated glucose-starved CAKI-2 cells with two types of glycogenolysis inhibitor: CP-316819 (▪), which inhibits glycogen phosphorylase and NN-DNJ (♦), which inhibits lysosomal glycogen breakdown. […] After 4 h glycogen loss was restricted to 25% and roughly ⅓^rd was still present after 20 h in glucose free media (p<0.05).

RCC [5] = details: high dose, cited from earlier work
[6] = 100 μM, 20 mM glucose, 24 h, Caki-2 cells

## CN(C)C(=O)[C@H](O)[C@H](Cc1ccccc1)NC(=O)c1cc2cc(Cl)ccc2[nH]1 [CP-91149]
Prostate cancer cells
  glycogen content: two-fold increase
  reduction in cell number: 50%

## O=C(N[C@@H](Cc1ccc(F)cc1)C(=O)N1CCC(O)CC1)c1cc2cc(Cl)ccc2[nH]1 [CP-320626]
Pancreatic tumor cells; concentrations below those required for anti-proliferative and pro-apoptotic effects
  flux into fatty acid synthesis and the pentose phosphate cycle: inhibited
Pancreatic tumor cells; pancreatic tumor cells
  flux of glucose through the TCA cycle: decreased

## CC(=O)N(O)CCCCCNC(=O)CCC(=O)N(O)CCCCCNC(=O)CCC(=O)N(O)CCCCCN [DFO, desferrioxamine]
Human Caki-2 RCC cells; [6]
  glycogen level (glycogenosis): 320±90 μg glucose/mg protein
Human Caki-2 RCC cells; CAKI-2 cells, DFO treatment
  increase of glycogen levels: 9 fold
HIF protein
  stabilization of HIF protein levels: able to stabilize HIF protein levels
CAKI-2 cells [1]; pre-incubated 300 μM DFO 16 hours, 100 mM azide, 0 mM glucose 4 hours
  resistance to cell death: significantly resistant to cell death

## CCCCCCCCCN1C[C@H](O)[C@@H](O)[C@H](O)[C@H]1CO [NN-DNJ, N-(n-Nonyl)deoxynojirimycin]
[2]; mice
  duration of sustained increases in hepatic glycogen levels: at least 120 days
[2]; mouse, in vivo
  body weight: did not lose body weight
  hypoglycemia: did not suffer hypoglycemia below normal fasting levels

## [Cl][Co][Cl] [cobalt chloride]
Human Caki-2 RCC cells; [6]
  induction of glycogenosis to a level equivalent to human RCC biopsies: Only DFO, the iron chelator, was able to induce glycogenosis
HIF protein
  stabilization of HIF protein levels: only DFO was able to stabilize HIF protein levels

## CCN(CC)CCNC(=O)c1c(C)[nH]c(/C=C2\C(=O)Nc3ccc(F)cc32)c1C [sunitinib malate]
RCC [3]
  median increase in survival: 16.4 months
  response: 24% to 40%
  stable disease, additional patients: 27% to 46%

## CP-316819
CAKI-2 cells [4]; after 4 h, glucose-starved CAKI-2 cells
  glycogen loss: 25%
CAKI-2 cells [4]; after 20 h in glucose free media
  glycogen still present (fraction): roughly ⅓
CAKI-2 cells [4]; glucose-starved CAKI-2 cells
  reducing glycogen breakdown (comparison of the two inhibitors): most effective at reducing glycogen breakdown
CAKI-2 cells [1]; 60 μM CP-316819, DFO-pretreated cells, 0 mM glucose, 0 mM pyruvate, 4 hours, sodium azide
  protection of glycogen-loaded cells against cell death: this protection is lost; also recorded: removed that protection

## bevacizumab: humanized monoclonal antibody, VEGF receptor antagonist
RCC [5]; after three years
  survival: no difference in survival
RCC [5]
  response: 30%

## ferric ammonium citrate
Human Caki-2 RCC cells; incubated in 150 μM ferric ammonium citrate
  DFO-dependent glycogen accumulation: did not occur
